What was measured:
Type in all cases: cell-based
[1] = test system: MDA-MB-453 (breast) cancer cell line; test: MTS cell proliferation assay, MDA-MB-453
Protocol: Cell proliferation was determined using the CellTiter 96 Aqueous One Solution Cell Proliferation Assay MTS assay. A549 NSCLC cells were plated at 1.5×10^3 cells per well in flat bottom 96 well plates in 99 μL of media and allowed to adhere overnight. The drugs were serially diluted in 100% DMSO. For each drug treatment group, 1 μL of a 100× stock solution was added to each well for a final DMSO concentration of 1%. Cells were treated for 24, 48 or 72 hours. Cells were incubated with MTS dye (20 μL well^−1) for 40 min to 2 h. Absorbance at 490 nm was determined using a SpectraMax M2 (Molecular Devices) plate reader. The percent cell proliferation was calculated by converting the experimental absorbance to percentage of control, which was then plotted vs. drug concentration. The IC50 values were determined using a non-linear dose-response analysis in GraphPad Prism version 4.0. The IC50 is defined as the concentration of drug needed to cause a 50% decrease in proliferation compared to vehicle control.
The activity of Clodronate prodrug (14) was tested against other cell lines, include prostate (PIP3) and breast (MDA-MB-453) cancer cells lines. Cell proliferation was determined using the CellTiter 96 Aqueous One Solution Cell Proliferation Assay MTS assay as discussed above. Results are shown in FIG. 22 and in the table below.

[2] = test system: caspases 3/7; test: Caspase Glo 3/7 assay; settings: higher drug concentrations, by 48 hours
Protocol: Caspase Glo 3/7 (Promega) assay was used to determine caspases 3/7 activation following treatment of cells with clodronate prodrug. Briefly, cells were treated with clodronate prodrug for 24, 48, or 72 h. Caspase glo 3/7 (Promega) reagent ([…]) was added to each well at 24, 48 or 72 h. The cells were then incubated at room temperature for 1 h, and the luminescence of each well was determined using a luminometer.

[3] = test system: HUVEC; test: Sprouting assay on dextran beads (anti-angiogenic activity)
Protocol: This assay is an unpublished variation of the assay described (Microvascular Research 2003, 66, 102-112) performed by the Hans Hammers Lab at Johns Hopkins University. The assay described in the above reference is described below.
HUVEC were mixed with dextran-coated Cytodex 3 microcarriers (Amersham Pharmacia Biotech, Piscataway, N.J.) at a concentration of 400 HUVEC per bead in 1 ml of EGM-2 medium (Clonetics, Walkersville, Md.). Beads with cells were shaken gently every 20 min for 4 h at 37° C. and 5% CO2. After incubating, beads with cells were transferred to a 25-cm^2 tissue culture flask (BD Biosciences, Bedford, Mass.) and left for 12-16 h in 5 ml of EGM-2 at 37° C. and 5% CO2. The following day, beads with cells were washed three times with 1 ml of EGM-2 and resuspended at a concentration of 200 cell-coated beads/ml in 2.5 mg/ml of fibrinogen (Sigma, St. Louis, Mo.) with or without 0.15 units/ml of aprotinin (Sigma) at a pH of 7.4. Five hundred microliters of fibrinogen/bead solution was added to 0.625 units of thrombin (Sigma) in one well of a 24-well tissue culture plate. […] Bead assays were monitored for 7 days. […]

[4] = test system: SR; test: NCI-60 DTP Human Tumor Cell Line Screen; settings: Leukemia, 48 h
[5] = test system: NCI-H522; test: NCI-60 DTP Human Tumor Cell Line Screen; settings: NCI-H522, Non-Small Cell Lung Cancer, 48 h
[6] = test system: HCT-116; test: NCI-60 DTP Human Tumor Cell Line Screen; settings: HCT-116, Colon Cancer, 48 h
[7] = test system: HCT-15; test: NCI-60 DTP Human Tumor Cell Line Screen; settings: HCT-15, Colon Cancer, 48 h
[8] = test system: U251; test: NCI-60 DTP Human Tumor Cell Line Screen; settings: U251, CNS Cancer, 48 h
[9] = test system: LOX IMVI; test: NCI-60 DTP Human Tumor Cell Line Screen; settings: Melanoma, 48 h
[10] = test system: MALME-3M; test: NCI-60 DTP Human Tumor Cell Line Screen; settings: Melanoma, 48 h
[11] = test system: SK-MEL-28; test: NCI-60 DTP Human Tumor Cell Line Screen; settings: SK-MEL-28, Melanoma, 48 h
[12] = test system: UACC-62; test: NCI-60 DTP Human Tumor Cell Line Screen; settings: UACC-62, Melanoma, 48 h
[13] = test system: CAKI-1; test: NCI-60 DTP Human Tumor Cell Line Screen; settings: CAKI-1, Renal Cancer, 48 h
[14] = test system: DU145; test: NCI-60 DTP Human Tumor Cell Line Screen; settings: DU145, Prostate Cancer, 48 h
[15] = test system: HS 578T; test: NCI-60 DTP Human Tumor Cell Line Screen; settings: Breast Cancer, 48 h
[16] = test system: BT-549; test: NCI-60 DTP Human Tumor Cell Line Screen; settings: BT-549, Breast Cancer, 48 h

CN(CCCCCl)P(=O)(OCc1ccc([N+](=O)[O-])cc1)C(Cl)(Cl)P(=O)(OCc1ccc([N+](=O)[O-])cc1)N(C)CCCCCl (stereo not shown) [compound 14]
EC50 [1]: 9 µM
caspases 3/7 activation [2]: Activation of caspases 3/7
sprouting ([3]; 6 μM): sprouting was delayed for the first few days
sprouting ([3]; 10 μM): sprouting is inhibited
Log10GI50 [4]: −5.43
Log10LC50 [4]: >−4.00
Log10TGI [4]: >−4.00
Log10GI50 [5]: −5.66
Log10LC50 [5]: >−4.00
Log10TGI [5]: −5.11
Log10GI50 [6]: −5.58
Log10LC50 [6]: >−4.00
Log10TGI [6]: >−4.00
Log10GI50 [7]: −5.41
Log10LC50 [7]: >−4.00
Log10TGI [7]: >−4.00
Log10GI50 [8]: −5.45
Log10LC50 [8]: >−4.00
Log10TGI [8]: >−4.00
Log10GI50 [9]: −5.75
Log10LC50 [9]: −4.26
Log10TGI [9]: −5.33
Log10GI50 [10]: −5.39
Log10LC50 [10]: >−4.00
Log10TGI [10]: >−4.00
Log10GI50 [11]: −5.42
Log10LC50 [11]: >−4.00
Log10TGI [11]: >−4.00
Log10GI50 [12]: −5.70
Log10LC50 [12]: −4.11
Log10TGI [12]: −5.30
Log10GI50 [13]: −5.54
Log10LC50 [13]: >−4.00
Log10TGI [13]: >−4.00
Log10GI50 [14]: −5.40
Log10LC50 [14]: >−4.00
Log10TGI [14]: >−4.00
Log10GI50 [15]: −5.53
Log10LC50 [15]: >−4.00
Log10TGI [15]: −5.04
Log10GI50 [16]: −5.50
Log10LC50 [16]: >−4.00
Log10TGI [16]: −5.03
